Reference: ChEMBL document CHEMBL1131486, “Synthesis and pharmacological evaluation of ring-methylated derivatives of 3,4-(methylenedioxy)amphetamine (MDA)” (J Med Chem, 1998)
pIC50: −log10 of the molar value. Activity calls are given as the source filed them. The rule behind the calls is not given here.

Columns and labels:
[1] = target: T1, Norepinephrine transporter (Rattus norvegicus, UniProt Q9WTR4); test: (§1) Compound was tested for the ability to inhibit [3H]norepinephrine binding to Norepinephrine transporter in rat synaptosomes; assay type: subcellular, Brain
T1 sequence (Q9WTR4 whole entry): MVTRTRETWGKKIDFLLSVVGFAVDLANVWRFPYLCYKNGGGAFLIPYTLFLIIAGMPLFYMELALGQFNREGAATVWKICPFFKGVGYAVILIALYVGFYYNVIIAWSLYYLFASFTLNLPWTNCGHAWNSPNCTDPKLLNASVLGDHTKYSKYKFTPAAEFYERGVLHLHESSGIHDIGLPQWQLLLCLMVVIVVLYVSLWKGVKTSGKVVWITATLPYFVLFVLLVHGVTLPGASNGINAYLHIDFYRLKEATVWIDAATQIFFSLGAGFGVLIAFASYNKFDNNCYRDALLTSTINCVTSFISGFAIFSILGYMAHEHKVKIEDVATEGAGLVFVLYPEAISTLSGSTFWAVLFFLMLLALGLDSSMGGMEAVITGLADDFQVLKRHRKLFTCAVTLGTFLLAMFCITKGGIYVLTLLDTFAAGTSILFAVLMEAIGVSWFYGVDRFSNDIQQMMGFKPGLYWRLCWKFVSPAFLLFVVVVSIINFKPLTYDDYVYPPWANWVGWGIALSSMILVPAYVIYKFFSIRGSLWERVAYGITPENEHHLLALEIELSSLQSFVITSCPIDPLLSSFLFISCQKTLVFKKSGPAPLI

[2] = target: Sodium-dependent serotonin transporter (Rattus norvegicus, UniProt P31652); test: Activity towards Serotonin transporter was determined by the ability to inhibit [3H]5-HT uptake in rat synaptosomes; assay type: subcellular, Brain
Sequence of Sodium-dependent serotonin transporter (P31652 whole entry): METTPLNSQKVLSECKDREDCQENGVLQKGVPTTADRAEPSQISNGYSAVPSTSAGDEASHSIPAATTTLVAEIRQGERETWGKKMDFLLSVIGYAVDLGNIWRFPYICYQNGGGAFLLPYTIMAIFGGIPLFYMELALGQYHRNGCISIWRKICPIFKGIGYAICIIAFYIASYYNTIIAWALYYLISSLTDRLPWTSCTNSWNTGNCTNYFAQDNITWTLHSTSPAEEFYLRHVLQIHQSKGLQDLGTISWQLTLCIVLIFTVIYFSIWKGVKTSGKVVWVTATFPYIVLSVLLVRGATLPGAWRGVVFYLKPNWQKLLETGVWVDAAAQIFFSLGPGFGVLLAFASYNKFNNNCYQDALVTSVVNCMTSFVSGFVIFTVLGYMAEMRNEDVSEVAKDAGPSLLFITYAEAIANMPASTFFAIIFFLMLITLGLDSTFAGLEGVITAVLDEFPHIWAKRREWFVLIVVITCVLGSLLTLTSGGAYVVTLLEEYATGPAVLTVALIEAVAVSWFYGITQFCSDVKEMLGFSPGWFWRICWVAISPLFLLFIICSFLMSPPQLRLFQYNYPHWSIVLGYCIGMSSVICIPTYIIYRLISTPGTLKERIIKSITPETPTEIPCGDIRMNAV

[3] = selectivity is the ratio between IC50 values of 5-HTand DA
Rattus norvegicus [4] = organism: Rattus norvegicus; test: Compound was tested for its ability to inhibit [3H]dopamine uptake in rat synaptosomes; assay type: functional; conditions: Brain
Rattus norvegicus [5] = organism: Rattus norvegicus; test: Effective dose for drug discrimination assay in rats using MMAI as training drug.; assay type: functional
Rattus norvegicus [6] = organism: Rattus norvegicus; test: Effective dose for drug discrimination assay in rats using (+)-MBDB as training drug.; assay type: functional
Rattus norvegicus [7] = organism: Rattus norvegicus; test: Effective dose for drug discrimination assay in rats using LSD as training drug.; assay type: functional
Rattus norvegicus [8] = organism: Rattus norvegicus; test: Effective dose for drug discrimination assay in rats using (+)-Amphitamine as training drug; NS = No substitution; assay type: functional, organism-based
Rattus norvegicus [9] = organism: Rattus norvegicus; test: Effective dose for drug discrimination assay in rats using DOIas training drug.; assay type: functional
Rattus norvegicus [10] = organism: Rattus norvegicus; test: Effective dose for drug discrimination assay in rats using DOI as training drug.; assay type: functional
Rattus norvegicus [11] = organism: Rattus norvegicus; test: Effective dose for drug discrimination assay in rats using LSD as training drug; assay type: functional
Rattus norvegicus [12] = organism: Rattus norvegicus; test: Effective dose for drug discrimination assay in rats using (+)-amphetamine as training drug; assay type: functional
[13] = target: T1, Norepinephrine transporter; test: as §1; assay type: functional, subcellular, Brain
Rattus norvegicus [14] = organism: Rattus norvegicus; test: Effective dose for drug discrimination assay in rats using (+)-MBDB as training drug; assay type: functional

SMILES	pIC50 [1]	pIC50 [2]	Selectivity [3]	pIC50 (Rattus norvegicus [4])	ED50 (Rattus norvegicus [5]) [µmol/kg]	ED50 (Rattus norvegicus [8])	further results
CC(N)Cc1ccc2c(c1)CCC2 (stereo not drawn)	6.07	7.09	23	–	–	–	–
CSc1ccc(CC(C)N)cc1 (stereo not drawn) [4-METHYLTHIOAMPHETAMINE]	5.62	7.13	42	5.51	–	–	–
Cc1cc(CC(C)N)cc2c1OCO2 (stereo not drawn)	5.83	6.97	108	4.94	1.53	inactive	ED50 (Rattus norvegicus [6]): 2 µmol/kg; ED50 (Rattus norvegicus [7]): 8.72 µmol/kg; ED50 (Rattus norvegicus [9]): 2.11 µmol/kg
COc1cc(CC(C)N)c(OC)cc1I (stereo not drawn)	–	–	–	–	–	–	ED50 (Rattus norvegicus [10]): 0.3 µmol/kg
COc1cc2c(cc1C)CC(N)C2 (stereo not drawn)	–	–	–	–	1.83	–	–
CCN(CC)C(=O)[C@@H]1C=C2c3cccc4[nH]cc(c34)C[C@H]2N(C)C1 [LYSERGIDE]	–	–	–	–	–	–	ED50 (Rattus norvegicus [11]): 0.04 µmol/kg
C[C@H](N)Cc1ccccc1 [DEXTROAMPHETAMINE]	–	–	–	–	–	–	ED50 (Rattus norvegicus [12]): 1.06 µmol/kg
Cc1c(CC(C)N)ccc2c1OCO2 (stereo not drawn)	–	7.03	129	4.92	1.71	inactive	ED50 (Rattus norvegicus [6]): 1.83 µmol/kg; pIC50 [13]: 5.71; ED50 (Rattus norvegicus [7]): 4.1 µmol/kg; ED50 (Rattus norvegicus [9]): 1.7 µmol/kg
CC(N)Cc1ccc2c(c1)OCO2 (stereo not drawn) [TENAMFETAMINE]	6.58	6.32	2	6.05	–	inactive	ED50 (Rattus norvegicus [6]): 2.07 µmol/kg
Cc1cc2c(cc1CC(C)N)OCO2 (stereo not drawn)	5.34	6.11	36	4.55	7.65	inactive	ED50 (Rattus norvegicus [14]): 17.4 µmol/kg; ED50 (Rattus norvegicus [7]): 17.4 µmol/kg; ED50 (Rattus norvegicus [9]): 8.72 µmol/kg
CC(N)Cc1ccc(I)cc1 (stereo not drawn) [p-IODOAMPHETAMINE]	6.00	7.09	7	6.23	–	–	–
